Counter-ions that a name gives are not always drawn.
Experiments:
[1] = system: MCF-7 cells; assay: Growth inhibition of MCF-7 human breast cancer cells, 72 h culture (Test 1); format: cell-based; details: MCF7, 37° C., read-out: 50% Growth inhibition concentrations (GI50)
Experimental: Used in the test were MCF-7 cells which were established from human breast cancer and were cultured routinely under the conditions of 37° C. and 5% CO2, in RPMI 1640 medium supplemented with 10% fetal calf serum, HEPES buffer solution (25 mM) and kanamycin (0.1 mg/ml). Single cell suspension was prepared by adding trypsin/EDTA to the medium so as to be adjusted to 4.0×10^4 cells/ml. Test compounds were dissolved or suspended in DMSO or RPMI 1640 medium at a concentration of 1.0×10^-4 -1.0×10^-9 M.
The cell suspension and the sample solution or suspension were filled in a 96-wells microplate at a rate of 0.1 ml of the former and 0.1 ml of the latter per well and cultured at 37° C. for 72 hours in 5% CO2.
50% Growth inhibition concentrations (GI50 μM) were calculated from growth inhibitions at various sample concentrations.

[2] = system: M5076 mouse reticulum cell sarcoma cells; assay: Tumor growth inhibition, M5076 mouse reticulum cell sarcoma transplanted subcutaneously in BDF1 mice (Test 2); format: in vivo; details: abdominally administered for 9 days, tumor weight on day 21
Experimental: The treated group to which the test sample was administered consisted of seven mice while the control group consisted of ten mice. Six weeks old male mice (BDF1, 25±2.5 g) were employed as host animals.
M5076 mouse reticulum cell sarcoma cells routinely cultured in abdominal of C57BL/6 male mice were diluted with cold Hanks solution and 1.0×10^6 cells of them were transplanted subcutaneously into left breast of each mouse. The samples prepared by suspending test compounds in 1% hydroxypropyl cellulose (HPC) were abdominally administered for 9 days after the day after the transplantation. After 21 days passed from the transplantation of the tumor, the mice were killed and the tumors were extracted out to measure the tumor weights of the respective groups.
Effect of sample was calculated as tumor growth inhibition by the following formula:
Tumor Growth Inhibition (%)=(1-T/C)×100
T: tumor weight of group with sample administered
C: tumor weight of control group

Structure (SMILES)	GI50 [1] [µM]	further results
C[C@@H]1OCCN(c2nc(N3CCOCC3)nc(-n3cnc4ccccc43)n2)[C@@H]1C (relative stereo) [compound 7, 2-(benzimidazol-1-yl)-4-(cis-2,3-dimethylmorpholino)-6-morpholino-1,3,5-triazine]	1	
C[C@@H]1CN(c2nc(N3CCO[C@@H](C)[C@H]3C)nc(-n3cnc4ccccc43)n2)C[C@H](C)O1 (relative stereo) [compound 8, 2-(benzimidazol-1-yl)-4-(cis-2,3-dimethylmorpholino)-6-(cis-2,6-dimethylmorpholino)-1,3,5-triazine]	3.9	
C[C@H]1CN(c2nc(N3CCOCC3)nc(-n3cnc4ccccc43)n2)C[C@H](C)O1 (relative stereo) [compound 14, 2-(benzimidazol-1-yl)-4-(trans-2,6-dimethylmorpholino)-6-morpholino-1,3,5-triazine]	2.3	
C[C@H]1CN(c2cc(N3CCOCC3)nc(-n3cnc4ccccc43)n2)C[C@H](C)O1 (relative stereo) [compound 20, 2-(benzimidazol-1-yl)-4-(trans-2,6-dimethylmorpholino)-6-morpholinopyrimidine]	2.8	
C[C@@H]1OCCN(c2cc(N3CCOCC3)nc(-n3cnc4ccccc43)n2)[C@@H]1C (relative stereo) [compound 21, 2-(benzimidazol-1-yl)-4-(cis-2,3-dimethylmorpholino)-6-morpholinopyrimidine]	1.1	
C[C@@H]1CN(c2nc(N3CCOCC3)nc(-n3cnc4ccccc43)n2)C[C@H](C)O1 [compound 1, 2-(benzimidazol-1-yl)-4-(cis-2,6-dimethyl-morpholino)-6-morpholino-1,3,5-triazine]	2.9	Tumor Growth Inhibition (%) ([2]; 200 mg/kg): 94.7%
c1ccc2c(c1)ncn2-c1nc(N2CCOCC2)nc(N2CCOCC2)n1 [compound 2, 2-(benzimidazol-1-yl)-4,6-dimorpholino-1,3,5-triazine]	3.3	
Cc1nc2ccccc2n1-c1nc(N2CCOCC2)nc(N2CCOCC2)n1 [compound 3, 2-(2-methylbenzimidazol-1-yl)-4,6-dimorpholino-1,3,5-triazine]	3.7	
N#Cc1nc(N2CCOCC2)nc(-n2cnc3ccccc32)n1 [compound 4, 2-(benzimidazol-1-yl)-4-cyano-6-morpholino-1,3,5-triazine]	3.8	
FC(F)(F)C1CN(c2nc(N3CCOCC3)nc(-n3cnc4ccccc43)n2)CCO1 (centres unmarked) [compound 6, 2-(benzimidazol-1-yl)-4-morpholino-6-(2-trifluoro-methylmorpholino)-1,3,5-triazine]	7.2	
CC1(C)CN(c2nc(N3CCOCC3)nc(-n3cnc4ccccc43)n2)CCO1 [compound 11, 2-(benzimidazol-1-yl)-4-(2,2-dimethylmorpholino)-6-morpholino-1,3,5-triazine]	1.7	Tumor Growth Inhibition (%) ([2]; 200 mg/kg): 88.3%
CCC1CN(c2nc(N3CCOCC3)nc(-n3cnc4ccccc43)n2)CCO1 (centres unmarked) [compound 12, 2-(benzimidazol-1-yl)-4-(2-ethylmorpholino)-6-morpholino-1,3,5-triazine]	3.9	
CC1CN(c2nc(N3CCOCC3)nc(-n3cnc4ccccc43)n2)CCO1 (centres unmarked) [compound 16, 2-(benzimidazol-1-yl)-4-(2-methylmorpholino)-6-morpholino-1,3,5-triazine]	4.8	
CC(C)(C)OC(=O)NCC1CN(c2nc(N3CCOCC3)nc(-n3cnc4ccccc43)n2)CCO1 (centres unmarked) [compound 18, 2-(benzimidazol-1-yl)-4-[2-(tert-butoxycarbonylamino-methyl)morpholino]-6-morpholino-1,3,5-triazine]	6.3	
C[C@@H]1CN(c2cc(N3CCOCC3)nc(-n3cnc4ccccc43)n2)C[C@H](C)O1 [compound 19, 2-(benzimidazol-1-yl)-4-(cis-2,6-dimethyl-morpholino)-6-morpholinopyrimidine]	3.2	Tumor Growth Inhibition (%) ([2]; 200 mg/kg): 98.1%
c1ccc2c(c1)ncn2-c1nc(N2CCOCC2)cc(N2CCSCC2)n1 [compound 23, 2-(benzimidazol-1-yl)-4-morpholino-6-thiomorpholino-pyrimidine]	3.9	
CC(C)(C)OC(=O)NCC1CN(c2cc(N3CCOCC3)nc(-n3cnc4ccccc43)n2)CCO1 (centres unmarked) [compound 25, 2-(benzimidazol-1-yl)-4-[2-(tert-butoxycarbonylamino-methyl)morpholino]-6-morpholinopyrimidine]	4	
Cc1cc2ncn(-c3nc(N4CCOCC4)nc(N4CCOCC4)n3)c2cc1C [compound 30, 2-(5,6-dimethylbenzimidazol-1-yl)-4,6-dimorpholino-1,3,5-triazine]	3.7	

Structure (SMILES)	GI50 [1] [µM]	further results
CN(Cc1ccccc1)CC1CN(c2nc(N3CCOCC3)nc(-n3cnc4ccccc43)n2)CCO1 (centres unmarked) [compound 31, 2-(benzimidazol-1-yl)-4-[2-(N-benzyl-N-methylamino-methyl)morpholino]-6-morpholino-1,3,5-triazine]	6.8	
FCC1CN(c2nc(N3CCOCC3)nc(-n3cnc4ccccc43)n2)CCO1 (centres unmarked) [compound 32, 2-(benzimidazol-1-yl)-4-(2-fluoromethylmorpholino)-6-morpholino-1,3,5-triazine]	3.9	
Cc1nc2ccccc2n1-c1nc(N2CCOCC2)nc(N2C[C@@H](C)O[C@@H](C)C2)n1 [compound 33, 4-(cis-2,6-dimethylmorpholino)-2-(2-methylbenzimidazol-1-yl)-6-morpholino-1,3,5-triazine]	3.2	
OCC1CN(c2nc(N3CCOCC3)nc(-n3cnc4ccccc43)n2)CCO1 (centres unmarked) [compound 34, 2-(benzimidazol-1-yl)-4-(2-hydroxymethylmorpholino)-6-morpholino-1,3,5-triazine]	5.8	
OC1CCCN(c2nc(N3CCOCC3)nc(-n3cnc4ccccc43)n2)C1 (centres unmarked) [compound 36, 2-(benzimidazol-1-yl)-4-(3-hydroxypiperidino)-6-morpholino-1,3,5-triazine]	3.9	
CC(=O)OC1CCN(c2nc(N3CCOCC3)nc(-n3cnc4ccccc43)n2)CC1 [compound 38, 2-(4-acetoxypiperidino)-4-(benzimidazol-1-yl)-6-morpholino-1,3,5-triazine]	6.5	
OCCN(CCO)c1nc(N2CCOCC2)nc(-n2cnc3ccccc32)n1 [compound 42, 2-(benzimidazol-1-yl)-4-[N,N-di(2-hydroxyethyl)amino]-6-morpholino-1,3,5-triazine]	4.6	
c1ccc2c(c1)ncn2-c1nc(N2CCOCC2)cc(N2CCOCC2)n1 [compound 43, 2-(benzimidazol-1-yl)-4,6-dimorpholinopyrimidine]	4.3	
c1ccc2c(c1)ncn2-c1cc(N2CCOCC2)nc(-n2cnc3ccccc32)n1 [compound 44, 2,4-di(benzimidazol-1-yl)-6-morpholinopyrimidine]	3.1	
c1ccc2c(c1)ncn2-c1cc(N2CCOCC2)nc(N2CCOCC2)n1 [compound 45, 4-(benzimidazol-1-yl)-2,6-dimorpholinopyrimidine]	4.6	
c1ccc2c(c1)ncn2-c1cc(-n2cnc3ccccc32)nc(N2CCOCC2)n1 [compound 46, 4,6-di(benzimidazol-1-yl)-2-morpholinopyrimidine]	4.3	
Brc1c(N2CCOCC2)nc(-n2cnc3ccccc32)nc1N1CCOCC1 [compound 47, 2-(benzimidazol-1-yl)-5-bromo-4,6-dimorpholinopyrimidine]	3.6	
c1ccc2c(c1)ncn2-c1nc(N2CCOCC2)nc(N2CCC3(CC2)OCCO3)n1 [compound 48, 2-(benzimidazol-1-yl)-4-[1,4-dioxa-8-azaspiro[4,5]decan-8-yl)-6-morpholino-1,3,5-triazine]	5	
CCN(CCN1CCOCC1)c1nc(N2CCOCC2)nc(-n2cnc3ccccc32)n1 [compound 49, 2-(benzimidazol-1-yl)-4-(N-ethyl-N-2-morpholinoethyl)amino-6-morpholino-1,3,5-triazine]	5	
NCCCCC1CCCN(c2nc(N3CCOCC3)nc(-n3cnc4ccccc43)n2)C1 (centres unmarked) [compound 53, hydrochloride of 2-[3-(4-aminobutyl)piperidino]-4-(benzimidazol-1-yl)-6-morpholino-1,3,5-triazine]	5.2	
c1cn(-c2nc(N3CCOCC3)nc(N3CCOCC3)n2)cn1 [compound A, 2-(imidazol-1-yl)-4,6-dimorpholino-1,3,5-triazine, reference compound]	20	Tumor Growth Inhibition (%) ([2]; 70 mg/kg): 5.0%
CN(C)c1nc(N(C)C)nc(N(C)C)n1 [compound B, hexamethylmelamine, reference compound]	> 100	Tumor Growth Inhibition (%) ([2]; 100 mg/kg): 38.8%
CN(C)c1nc(N(C)C)nc(N(C)CO)n1 [compound C, hydroxymethylpentamethylmelamine, reference compound]	> 50	
